Assay: xn = mol fraction of the nth substance listed
Conditions: 298.15 K, 101 kPa

Cc1ncc(C[n+]2csc(CCO)c2C)c(N)n1.Cl.[Cl-] + CCCCCCCCCCCCOS(=O)(=O)[O-].[Na+] + O
Conditions	electrical conductivity [S/m]
x2 = 0, x1 = 1.8e-07	0.00291
x2 = 0, x1 = 9e-07	0.00489
x2 = 0, x1 = 1.8e-06	0.00788
x2 = 7.35e-06, x1 = 1.8e-07	0.00635
x2 = 7.35e-06, x1 = 9e-07	0.00839
x2 = 7.35e-06, x1 = 1.8e-06	0.0119
x2 = 1.463e-05, x1 = 1.8e-07	0.0099
x2 = 1.463e-05, x1 = 9e-07	0.0118
x2 = 1.463e-05, x1 = 1.8e-06	0.0158
x2 = 2.18e-05, x1 = 1.8e-07	0.0131
x2 = 2.18e-05, x1 = 9e-07	0.0152
x2 = 2.18e-05, x1 = 1.8e-06	0.0196
x2 = 2.901e-05, x1 = 1.8e-07	0.0163
x2 = 2.901e-05, x1 = 9e-07	0.0186
x2 = 2.901e-05, x1 = 1.8e-06	0.0233
x2 = 3.604e-05, x1 = 1.8e-07	0.0196
x2 = 3.604e-05, x1 = 9e-07	0.0219
x2 = 3.604e-05, x1 = 1.8e-06	0.027
x2 = 4.307e-05, x1 = 1.8e-07	0.0228
x2 = 4.307e-05, x1 = 9e-07	0.0251
x2 = 4.307e-05, x1 = 1.8e-06	0.0308
x2 = 4.991e-05, x1 = 1.8e-07	0.026
x2 = 4.991e-05, x1 = 9e-07	0.0282
x2 = 4.991e-05, x1 = 1.8e-06	0.0347
x2 = 5.676e-05, x1 = 1.8e-07	0.0292
x2 = 5.676e-05, x1 = 9e-07	0.0312
x2 = 5.676e-05, x1 = 1.8e-06	0.0384
x2 = 6.361e-05, x1 = 1.8e-07	0.0323
x2 = 6.361e-05, x1 = 9e-07	0.0342
x2 = 6.361e-05, x1 = 1.8e-06	0.0421
x2 = 7.027e-05, x1 = 1.8e-07	0.0354
x2 = 7.027e-05, x1 = 9e-07	0.0372
x2 = 7.028e-05, x1 = 1.8e-06	0.0457
x2 = 7.694e-05, x1 = 1.8e-07	0.0385
x2 = 7.694e-05, x1 = 9e-07	0.0402
x2 = 7.694e-05, x1 = 1.8e-06	0.0492
x2 = 8.361e-05, x1 = 1.8e-07	0.0414
x2 = 8.361e-05, x1 = 9e-07	0.0431
x2 = 8.361e-05, x1 = 1.8e-06	0.0526
x2 = 9.009e-05, x1 = 1.8e-07	0.0443
x2 = 9.009e-05, x1 = 9e-07	0.046
x2 = 9.009e-05, x1 = 1.8e-06	0.0557
x2 = 9.658e-05, x1 = 1.8e-07	0.0471
x2 = 9.658e-05, x1 = 9e-07	0.0489
x2 = 9.658e-05, x1 = 1.8e-06	0.0587
x2 = 0.0001031, x1 = 1.8e-07	0.0498
x2 = 0.0001031, x1 = 9e-07	0.0518
x2 = 0.0001031, x1 = 1.8e-06	0.0616
x2 = 0.0001094, x1 = 1.8e-07	0.0524
x2 = 0.0001094, x1 = 9e-07	0.0545
x2 = 0.0001094, x1 = 1.8e-06	0.0643
x2 = 0.0001157, x1 = 1.8e-07	0.0549
x2 = 0.0001157, x1 = 9e-07	0.0571
x2 = 0.0001157, x1 = 1.8e-06	0.0668
x2 = 0.000122, x1 = 1.8e-07	0.0574
x2 = 0.000122, x1 = 9e-07	0.0595
x2 = 0.000122, x1 = 1.8e-06	0.0691
x2 = 0.0001281, x1 = 1.8e-07	0.0597
x2 = 0.0001281, x1 = 9e-07	0.0615
x2 = 0.0001281, x1 = 1.8e-06	0.0712
x2 = 0.0001342, x1 = 1.8e-07	0.0619
x2 = 0.0001342, x1 = 9e-07	0.0635
x2 = 0.0001342, x1 = 1.8e-06	0.0732
x2 = 0.0001404, x1 = 1.8e-07	0.0639
x2 = 0.0001404, x1 = 9e-07	0.0653
x2 = 0.0001404, x1 = 1.8e-06	0.0751
x2 = 0.0001465, x1 = 1.8e-07	0.0656
x2 = 0.0001465, x1 = 9e-07	0.0669
x2 = 0.0001465, x1 = 1.8e-06	0.077
x2 = 0.0001524, x1 = 1.8e-07	0.0672
x2 = 0.0001524, x1 = 9e-07	0.0685
x2 = 0.0001524, x1 = 1.8e-06	0.0789
x2 = 0.0001584, x1 = 1.8e-07	0.0687
x2 = 0.0001584, x1 = 9e-07	0.0699
x2 = 0.0001584, x1 = 1.8e-06	0.0807
x2 = 0.0001641, x1 = 1.8e-07	0.07
x2 = 0.0001641, x1 = 9e-07	0.0712
x2 = 0.0001641, x1 = 1.8e-06	0.0825
x2 = 0.0001699, x1 = 1.8e-07	0.0712
x2 = 0.0001699, x1 = 9e-07	0.0724
x2 = 0.0001699, x1 = 1.8e-06	0.0842
x2 = 0.0001757, x1 = 1.8e-07	0.0724
x2 = 0.0001757, x1 = 9e-07	0.0736
x2 = 0.0001757, x1 = 1.8e-06	0.0857
x2 = 0.0001814, x1 = 1.8e-07	0.0735
x2 = 0.0001814, x1 = 9e-07	0.0748
x2 = 0.0001814, x1 = 1.8e-06	0.0872
x2 = 0.000187, x1 = 1.8e-07	0.0745
x2 = 0.000187, x1 = 9e-07	0.076
x2 = 0.000187, x1 = 1.8e-06	0.0885
x2 = 0.0001928, x1 = 1.8e-07	0.0755
x2 = 0.0001928, x1 = 9e-07	0.0771
x2 = 0.0001928, x1 = 1.8e-06	0.0898
x2 = 0.0001982, x1 = 1.8e-07	0.0765
x2 = 0.0001982, x1 = 9e-07	0.0782
x2 = 0.0001982, x1 = 1.8e-06	0.0911
x2 = 0.0002038, x1 = 1.8e-07	0.0775
x2 = 0.0002038, x1 = 9e-07	0.0794
x2 = 0.0002038, x1 = 1.8e-06	0.0924
x2 = 0.0002092, x1 = 1.8e-07	0.0784
x2 = 0.0002092, x1 = 9e-07	0.0805
x2 = 0.0002092, x1 = 1.8e-06	0.0937
x2 = 0.0002147, x1 = 1.8e-07	0.0793
x2 = 0.0002148, x1 = 9e-07	0.0816
x2 = 0.0002148, x1 = 1.8e-06	0.0949
x2 = 0.00022, x1 = 1.8e-07	0.0802
x2 = 0.00022, x1 = 9e-07	0.0826
x2 = 0.00022, x1 = 1.8e-06	0.0961
x2 = 0.0002254, x1 = 1.8e-07	0.081
x2 = 0.0002254, x1 = 9e-07	0.0837
x2 = 0.0002254, x1 = 1.8e-06	0.0973
x2 = 0.0002306, x1 = 1.8e-07	0.0819
x2 = 0.0002306, x1 = 9e-07	0.0848
x2 = 0.0002306, x1 = 1.8e-06	0.0983
x2 = 0.0002358, x1 = 1.8e-07	0.0827
x2 = 0.0002358, x1 = 9e-07	0.0858
x2 = 0.0002358, x1 = 1.8e-06	0.0993
x2 = 0.0002411, x1 = 1.8e-07	0.0836
x2 = 0.0002411, x1 = 9e-07	0.0869
x2 = 0.0002411, x1 = 1.8e-06	0.1
